Reference: US20250222044A1, “LIMOSILACTOBACILLUS REUTERI GOLDGUT-LR99 AND APPLICATION THEREOF” (priority 2024, published 2025)

Test system: Limosilactobacillus reuteri GOLDGUT-LR99
Experiment: Carbon source utilization and oxidation experiment (AN Biolog micro-pore plate)
Assay type: cell-based
Details: substrate utilization by the strain
Protocol: The AN Biolog micro-pore plate was used for measuring the utilization and oxidation conditions of different carbon sources of Limosilactobacillus reuteri GOLDGUT-LR99, the AN microplate used nutrients and biochemical reagents, and the method included the following steps: 1 mL of Limosilactobacillus reuteri GOLDGUT-LR99 bacterial liquid of the strain to be detected at the end of logarithmic growth was pipetted and centrifuged, then the supernatant was removed, the cells was washed three times with the seed liquid and suspended with 1 mL of the seed liquid, 50 μL of the suspension was taken and diluted in 10 mL of the seed liquid, the diluent was subpacked in a Biolog plate (100 μL/pore) after mixing uniformly, and the Biolog plate with the diluent was placed in 37° C. for anaerobic culture for 24 hours. After the culture was finished, OD590 and OD750 were detected by using microplate reader, the numerical values were recorded, and the utilization conditions of carbohydrate, organic acid and other substances of the Limosilactobacillus reuteri GOLDGUT-LR99 were calculated, wherein the calculation method was as follows: Y=OD590−OD750;

Row | Compound | utilization effect (in words)
1 | CC(C)[C@H](N)C(=O)O [L-Valine] | good utilization effect

Same assay, conditions: substrate utilization by the strain, 37° C. anaerobic culture for 24 hours

Row | Compound | Utilization (Y=OD590−OD750)
2 | O[C@H]1[C@H](O)[C@@H](O)[C@H](O)[C@@H](O)[C@H]1O [m-Inositol] | + (when 0.1 > Y > 0.05, it is shown that the strain was able to better utilize this substance, marked as +)
3 | COC(=O)CCC(=O)O [Succinic acid methyl ester] | − (when Y < 0.05, it is shown that the strain was not able to utilize this substance, marked as −)
4 | CCCC(=O)C(=O)O [α-Ketovaleric acid] | − (when Y < 0.05, it is shown that the strain was not able to utilize this substance, marked as −)
5 | L-Glutamate salt | − (when Y < 0.05, it is shown that the strain was not able to utilize this substance, marked as −)
6 | OCc1ccccc1O[C@@H]1O[C@H](CO)[C@@H](O)[C@H](O)[C@H]1O [Salicin] | − (when Y < 0.05, it is shown that the strain was not able to utilize this substance, marked as −)
7 | Dextrin | − (when Y < 0.05, it is shown that the strain was not able to utilize this substance, marked as −)
8 | O=c1ccn([C@@H]2O[C@H](CO)[C@@H](O)[C@H]2O)c(=O)[nH]1 [Uridine] | − (when Y < 0.05, it is shown that the strain was not able to utilize this substance, marked as −)
9 | L-Alanyl-L-M-threonine | − (when Y < 0.05, it is shown that the strain was not able to utilize this substance, marked as −)
10 | OC[C@@H](O)[C@@H](O)CO [i-Erythritol] | − (when Y < 0.05, it is shown that the strain was not able to utilize this substance, marked as −)
11 | CC(C)[C@@H](C)/C=C/[C@@H](C)[C@H]1CC[C@H]2C3=CC=C4C[C@@H](O)CC[C@]4(C)[C@H]3CC[C@]12C [Ergosterol] | ++ (when Y > 0.1, it is shown that the strain was able to effectively utilize this substance, marked as++)
12 | OC[C@H]1O[C@@](CO)(O[C@H]2O[C@H](CO)[C@@H](O)[C@H](O)[C@H]2O)[C@@H](O[C@H]2O[C@H](CO)[C@@H](O)[C@H](O)[C@H]2O)[C@@H]1O [Melezitose] | ++ (when Y > 0.1, it is shown that the strain was able to effectively utilize this substance, marked as++)
13 | OC[C@@H](O)[C@@H](O)[C@H](O)[C@@H](O)CO [D-Sorbitol] | ++ (when Y > 0.1, it is shown that the strain was able to effectively utilize this substance, marked as++)
14 | N[C@@H](Cc1ccccc1)C(=O)O [L-Phenylalanine] | − (when Y < 0.05, it is shown that the strain was not able to utilize this substance, marked as −)
15 | Glycine-L-aspartic acid | − (when Y < 0.05, it is shown that the strain was not able to utilize this substance, marked as −)
16 | CC(=O)N[C@H]1C(O)O[C@H](CO)[C@H](O)[C@@H]1O (stereo partly drawn) [N-Acetyl-D-galactosamine] | − (when Y < 0.05, it is shown that the strain was not able to utilize this substance, marked as −)
17 | O=C(O)C[C@@H](O)C(=O)O [D-Malic acid] | − (when Y < 0.05, it is shown that the strain was not able to utilize this substance, marked as −)
18 | OC[C@H]1O[C@@H](O[C@H]2[C@H](O)[C@@H](O)[C@@H](O)O[C@@H]2CO)[C@H](O)[C@@H](O)[C@H]1O [α-D-Lactose] | − (when Y < 0.05, it is shown that the strain was not able to utilize this substance, marked as −)

Row | Compound | Utilization (Y=OD590−OD750)
19 | 3-Methyl-D-4-glucose | ++ (when Y > 0.1, it is shown that the strain was able to effectively utilize this substance, marked as++)
20 | OC[C@H]1O[C@@H]2O[C@H]3[C@H](O)[C@@H](O)[C@@H](O[C@H]4[C@H](O)[C@@H](O)[C@@H](O[C@H]5[C@H](O)[C@@H](O)[C@@H](O[C@H]6[C@H](O)[C@@H](O)[C@@H](O[C@H]7[C@H](O)[C@@H](O)[C@@H](O[C@H]8[C@H](O)[C@@H](O)[C@@H](O[C@H]1[C@H](O)[C@H]2O)O[C@@H]8CO)O[C@@H]7CO)O[C@@H]6CO)O[C@@H]5CO)O[C@@H]4CO)O[C@@H]3CO [β-Cyclodextrin] | − (when Y < 0.05, it is shown that the strain was not able to utilize this substance, marked as −)
21 | C[C@H](O)[C@H](O)[C@@H](O)[C@@H](O)C=O [L-Rhamnose] | ++ (when Y > 0.1, it is shown that the strain was able to effectively utilize this substance, marked as++)
22 | O=CC(=O)O [Glyoxylic acid] | + (when 0.1 > Y > 0.05, it is shown that the strain was able to better utilize this substance, marked as +)
23 | CCC(=O)O [Propionic acid] | − (when Y < 0.05, it is shown that the strain was not able to utilize this substance, marked as −)
24 | N[C@@H](CCC(=O)O)C(=O)O [L-Glutamic acid] | − (when Y < 0.05, it is shown that the strain was not able to utilize this substance, marked as −)
25 | CSCC[C@H](NC(=O)CN)C(=O)O [Glycyl-L-methionine] | − (when Y < 0.05, it is shown that the strain was not able to utilize this substance, marked as −)
26 | O=C(O)/C=C/C(=O)O [Fumaric acid] | − (when Y < 0.05, it is shown that the strain was not able to utilize this substance, marked as −)
27 | CC(C)[C@H](N)C(=O)O [L-Valine] | + (when 0.1 > Y > 0.05, it is shown that the strain was able to better utilize this substance, marked as +)
28 | Maltotriose | ++ (when Y > 0.1, it is shown that the strain was able to effectively utilize this substance, marked as++)
29 | O=C1O[C@H](CO)[C@@H](O)[C@H](O)[C@H]1O [D-Gluconolactone] | ++ (when Y > 0.1, it is shown that the strain was able to effectively utilize this substance, marked as++)
30 | OC[C@@H](O)[C@@H](O)[C@@H](O)CO [Ribitol] | − (when Y < 0.05, it is shown that the strain was not able to utilize this substance, marked as −)
31 | O=C(O)CCC(=O)C(=O)O [α-Ketoglutaric acid] | − (when Y < 0.05, it is shown that the strain was not able to utilize this substance, marked as −)
32 | OC[C@H]1O[C@@H](O[C@@H]2[C@@H](CO)OC(O)(CO)[C@H]2O)[C@H](O)[C@@H](O)[C@H]1O (mixture of isomers) [Lactulose] | − (when Y < 0.05, it is shown that the strain was not able to utilize this substance, marked as −)
33 | O=C[C@H](O)[C@@H](O)[C@@H](O)[C@H](O)CO [D-Galactose] | ++ (when Y > 0.1, it is shown that the strain was able to effectively utilize this substance, marked as++)
34 | C[C@H](O)C(=O)O [L-Lactic acid] | ++ (when Y > 0.1, it is shown that the strain was able to effectively utilize this substance, marked as++)
35 | OC[C@H]1O[C@H](O)[C@H](O)[C@@H](O)[C@@H]1O [α-D-Glucose] | − (when Y < 0.05, it is shown that the strain was not able to utilize this substance, marked as −)
